Among the data in patent US11021493B2, “1,4-thiazine dioxide and 1,2,4-thiadiazine dioxide derivatives as beta-secretase inhibitors and methods of use” (AMGEN INC., priority 2016, dated 2021) are IC50 values, retold here.

For one assay, the target named is human recombinant BACE2 (Homo sapiens (Human), UniProt Q9Y5Z0). In words: In vitro enzymatic BACE2 FRET assay. The format is biochemical. Conditions: read-out: BACE2 Enzyme IC50.
Assay [1] addresses T1, BACE1 (Homo sapiens (Human), UniProt P56817). Put plainly: In vitro enzymatic BACE1 FRET assay. In kind it is biochemical. The note with it: read-out: BACE1 Enzyme IC50.
Target sequence in this assay (P56817 46-501): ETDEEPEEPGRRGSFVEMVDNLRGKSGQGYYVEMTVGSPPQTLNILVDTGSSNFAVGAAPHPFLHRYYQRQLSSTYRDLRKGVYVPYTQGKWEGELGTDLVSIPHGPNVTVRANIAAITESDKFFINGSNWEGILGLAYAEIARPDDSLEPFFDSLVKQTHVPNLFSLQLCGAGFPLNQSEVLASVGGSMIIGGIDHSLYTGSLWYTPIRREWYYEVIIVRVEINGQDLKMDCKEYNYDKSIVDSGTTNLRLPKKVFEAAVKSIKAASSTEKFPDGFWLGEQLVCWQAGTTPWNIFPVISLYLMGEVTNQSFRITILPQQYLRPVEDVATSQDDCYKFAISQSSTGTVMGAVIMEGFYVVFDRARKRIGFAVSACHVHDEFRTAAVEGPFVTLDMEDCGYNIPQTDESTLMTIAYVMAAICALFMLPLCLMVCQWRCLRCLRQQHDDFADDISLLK
Assay [2] deals with T1, BACE1. Put plainly: In vitro BACE1 cell-based assay (Aβ40 in conditioned medium of cells stably expressing APP, HTRF). The note with it: Aβ40 in conditioned media after 24 h incubation. In general terms: Time-resolved FRET reads energy transfer from a long-lived donor to a nearby acceptor.
Target sequence in this assay (P56817 46-501, species assumed): as the sequence (P56817 46-501) above
A further assay deals with Cathepsin D (CatD) (Homo sapiens (Human), UniProt P07339). In words: In vitro enzymatic Cathepsin D (CatD) FRET assay. The format is biochemical. Conditions: read-out: Cat D Enzyme IC50.
Sequence of Cathepsin D (CatD) (P07339 65-412, species assumed): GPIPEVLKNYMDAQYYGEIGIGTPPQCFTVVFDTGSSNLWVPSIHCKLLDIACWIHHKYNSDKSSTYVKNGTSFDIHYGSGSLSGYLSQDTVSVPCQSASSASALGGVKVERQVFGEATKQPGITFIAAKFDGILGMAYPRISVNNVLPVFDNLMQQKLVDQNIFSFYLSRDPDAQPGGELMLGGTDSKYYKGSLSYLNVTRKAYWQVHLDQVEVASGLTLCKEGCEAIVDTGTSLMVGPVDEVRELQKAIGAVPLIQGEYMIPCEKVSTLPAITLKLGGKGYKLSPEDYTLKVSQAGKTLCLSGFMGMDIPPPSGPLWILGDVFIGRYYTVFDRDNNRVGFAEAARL

Sequence of human recombinant BACE2 (Q9Y5Z0 63-518): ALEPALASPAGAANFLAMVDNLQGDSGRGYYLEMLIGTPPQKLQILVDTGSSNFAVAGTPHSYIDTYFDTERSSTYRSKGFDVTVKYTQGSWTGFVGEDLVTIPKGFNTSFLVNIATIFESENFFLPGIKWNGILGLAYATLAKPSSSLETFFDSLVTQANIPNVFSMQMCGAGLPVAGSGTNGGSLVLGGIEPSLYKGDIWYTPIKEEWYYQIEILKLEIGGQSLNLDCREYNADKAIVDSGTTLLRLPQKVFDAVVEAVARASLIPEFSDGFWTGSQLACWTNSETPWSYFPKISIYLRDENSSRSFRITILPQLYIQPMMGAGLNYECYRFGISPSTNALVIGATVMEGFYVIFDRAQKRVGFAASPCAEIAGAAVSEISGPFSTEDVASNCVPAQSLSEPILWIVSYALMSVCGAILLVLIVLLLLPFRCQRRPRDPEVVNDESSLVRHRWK

With `CN1C(N)=N[C@](C)(c2cc(/C=C(\F)c3cnc(C#CC4CC4)cn3)ccc2F)CS1(=O)=O` [Example 248, (R,Z)-3-amino-5-(5-(2-(5-(cyclopropylethynyl)pyrazin-2-yl)-2-fluorovinyl)-2-fluorophenyl)-2,5-dimethyl-5,6-dihydro-2H-1,2,4-thiadiazine 1,1-dioxide], the half-maximal inhibitory concentration (IC50) on human recombinant BACE2 was 16 nM; on BACE1 [1], 3 nM; at BACE1 [2], 13 nM; at Cathepsin D (CatD), 12700 nM.
With `CN1C(N)=N[C@](C)(c2cc(/C=C(\F)c3ccc(C#CC4CC4)cn3)ccc2F)CS1(=O)=O` [Example 251, (R,Z)-3-amino-5-(5-(2-(5-(cyclopropylethynyl)pyridin-2-yl)-2-fluorovinyl)-2-fluorophenyl)-2,5-dimethyl-5,6-dihydro-2H-1,2,4-thiadiazine 1,1-dioxide], the concentration for half-maximal inhibition (IC50) was found to be 36 nM on human recombinant BACE2, 7 nM on BACE1 [1], 110 nM against BACE1 [2] and 33800 nM on Cathepsin D (CatD).
`CN1C(N)=N[C@](C)(c2cc(/C=C(\F)c3cnc(OCC#CCF)cn3)ccc2F)CS1(=O)=O` [Example 254, (R,Z)-3-amino-5-(2-fluoro-5-(2-fluoro-2-(5-((4-fluorobut-2-yn-1-yl)oxy)pyrazin-2-yl)vinyl)phenyl)-2,5-dimethyl-5,6-dihydro-2H-1,2,4-thiadiazine 1,1-dioxide]: the IC50 came out at 52 nM at human recombinant BACE2, 7 nM at BACE1 [1], 21 nM at BACE1 [2] and 28300 nM at Cathepsin D (CatD).
In the same order, the values of `CN1C(N)=N[C@](C)(c2cc(/C=C(\F)c3ccc4c(n3)OCCO4)ccc2F)CS1(=O)=O` [Example 255, (5R)-5-(5-((Z)-2-(2,3-dihydro[1,4]dioxino[2,3-b]pyridin-6-yl)-2-fluoroethenyl)-2-fluorophenyl)-2,5-dimethyl-5,6-dihydro-2H-1,2,4-thiadiazin-3-amine 1,1-dioxide] are 458 nM, 3840 nM, 3020 nM and 122000 nM.
In the case of `CN1C(N)=N[C@](C)(c2cc(/C=C(\F)c3ccc(C#N)s3)ccc2F)CS1(=O)=O` [Example 256, 5-((Z)-2-(3-((5R)-3-amino-2,5-dimethyl-1,1-dioxido-5,6-dihydro-2H-1,2,4-thiadiazin-5-yl)-4-fluorophenyl)-1-fluoroethenyl)-2-thiophenecarbonitrile], the IC50 is 14 nM on human recombinant BACE2, 35 nM at BACE1 [1], 99 nM on BACE1 [2] and 15400 nM at Cathepsin D (CatD).
Regarding `CN1C(N)=N[C@](C)(c2cc(/C=C(\F)c3cc4c(cn3)OCO4)ccc2F)CS1(=O)=O` [Example 257, (5R)-5-(5-((Z)-2-([1,3]dioxolo[4,5-c]pyridin-6-yl)-2-fluoroethenyl)-2-fluorophenyl)-2,5-dimethyl-5,6-dihydro-2H-1,2,4-thiadiazin-3-amine 1,1-dioxide], the IC50 was 235 nM at human recombinant BACE2, 207 nM at BACE1 [1], 102 nM against BACE1 [2] and 237000 nM at Cathepsin D (CatD).
For `CN1C(N)=N[C@](C)(c2cc(/C=C(\F)c3ccc(OC(F)(F)F)cn3)ccc2F)CS1(=O)=O` [Example 258, (R,Z)-3-amino-5-(2-fluoro-5-(2-fluoro-2-(5-(trifluoromethoxy)pyridin-2-yl)vinyl)phenyl)-2,5-dimethyl-5,6-dihydro-2H-1,2,4-thiadiazine 1,1-dioxide], the IC50 at human recombinant BACE2 was 40 nM; at BACE1 [1] it was 6 nM; against BACE1 [2], 33 nM; on Cathepsin D (CatD), 54400 nM.
`CN1C(N)=N[C@](C)(c2cc(/C=C(\F)c3cc4ccccc4cn3)ccc2F)CS1(=O)=O` [Example 259, (5R)-5-(2-fluoro-5-((Z)-2-fluoro-2-(3-isoquinolinyl)ethenyl)phenyl)-2,5-dimethyl-5,6-dihydro-2H-1,2,4-thiadiazin-3-amine 1,1-dioxide]: the concentration for half-maximal inhibition (IC50) is 41 nM on human recombinant BACE2, 272 nM on BACE1 [1], 1120 nM at BACE1 [2] and 116000 nM at Cathepsin D (CatD).
In the same order, the values of `CN1C(N)=N[C@](C)(c2cc(/C=C(\F)c3cc4cc(Cl)ccc4cn3)ccc2F)CS1(=O)=O` [Example 260, (5R)-5-(5-((Z)-2-(6-chloro-3-isoquinolinyl)-2-fluoroethenyl)-2-fluorophenyl)-2,5-dimethyl-5,6-dihydro-2H-1,2,4-thiadiazin-3-amine 1,1-dioxide] are 112 nM, 552 nM, 4180 nM and 72500 nM.
The corresponding values for `CC1(C)C(N)=N[C@](C)(c2cc(/C=C(\F)c3ccc(F)cn3)ccc2F)CS1(=O)=O` [Example 262, (R,Z)-5-amino-3-(2-fluoro-5-(2-fluoro-2-(5-fluoropyridin-2-yl)vinyl)phenyl)-3,6,6-trimethyl-3,6-dihydro-2H-1,4-thiazine 1,1-dioxide] are 11 nM, 47 nM, 180 nM and 108000 nM.
For `COc1cnc(/C(F)=C/c2ccc(F)c([C@]3(C)CS(=O)(=O)C(C)(C)C(N)=N3)c2)cn1` [Example 263, (R,Z)-5-amino-3-(2-fluoro-5-(2-fluoro-2-(5-methoxypyrazin-2-yl)vinyl)phenyl)-3,6,6-trimethyl-3,6-dihydro-2H-1,4-thiazine 1,1-dioxide], the IC50 on human recombinant BACE2 came out at 190 nM; at BACE1 [1] it was 189 nM; against BACE1 [2], 133 nM; at Cathepsin D (CatD), 237000 nM.
As to `CC1(C)C(N)=N[C@](C)(c2cc(/C=C(\F)c3ncc(C(F)(F)F)cc3Cl)ccc2F)CS1(=O)=O` [Example 264, (R,Z)-5-amino-3-(5-(2-(3-chloro-5-(trifluoromethyl)pyridin-2-yl)-2-fluorovinyl)-2-fluorophenyl)-3,6,6-trimethyl-3,6-dihydro-2H-1,4-thiazine 1,1-dioxide], the IC50 worked out at 38 nM at human recombinant BACE2, 10 nM on BACE1 [1], 75 nM against BACE1 [2] and 117000 nM at Cathepsin D (CatD).
`CC1(C)C(N)=N[C@](C)(c2cc(/C=C(\F)c3ccc(C(F)(F)F)cn3)ccc2F)CS1(=O)=O` [Example 265, (R,Z)-5-amino-3-(2-fluoro-5-(2-fluoro-2-(5-(trifluoromethyl)pyridin-2-yl)vinyl)phenyl)-3,6,6-trimethyl-3,6-dihydro-2H-1,4-thiazine 1,1-dioxide]: the concentration for half-maximal inhibition (IC50) at human recombinant BACE2 was 43 nM; at BACE1 [1] it was 8 nM; on BACE1 [2] it was 10 nM; on Cathepsin D (CatD), 89400 nM.
`CN1C(N)=N[C@](C)(c2cc(/C=C(\F)c3cnc(C4CC4)cn3)ccc2F)CS1(=O)=O` [Example 266, (R,Z)-3-amino-5-(5-(2-(5-cyclopropylpyrazin-2-yl)-2-fluorovinyl)-2-fluorophenyl)-2,5-dimethyl-5,6-dihydro-2H-1,2,4-thiadiazine 1,1-dioxide]: the IC50 on human recombinant BACE2 is 78 nM; on BACE1 [1] it was 750 nM; on BACE1 [2], 653 nM; on Cathepsin D (CatD), 69800 nM.
Turning to `CN1C(N)=N[C@](C)(c2cc(/C=C(\F)c3nc(C#N)cs3)ccc2F)CS1(=O)=O` [Example 267, 2-((Z)-2-(3-((5R)-3-amino-2,5-dimethyl-1,1-dioxido-5,6-dihydro-2H-1,2,4-thiadiazin-5-yl)-4-fluorophenyl)-1-fluoroethenyl)-1,3-thiazole-4-carbonitrile], the IC50 at human recombinant BACE2 turned out to be 6 nM; at BACE1 [1] it was 26 nM; at BACE1 [2] it was 38 nM; at Cathepsin D (CatD) it was 57500 nM.
On to `CC1(C)C(N)=N[C@](C)(c2cc(/C=C(\F)c3ncc(C#N)cc3Cl)ccc2F)CS1(=O)=O` [Example 268, (R,Z)-6-(2-(3-(5-amino-3,6,6-trimethyl-1,1-dioxido-3,6-dihydro-2H-1,4-thiazin-3-yl)-4-fluorophenyl)-1-fluorovinyl)-5-chloronicotinonitrile], for which the IC50 came to 12 nM at human recombinant BACE2, 7 nM on BACE1 [1], 35 nM at BACE1 [2] and 136000 nM on Cathepsin D (CatD).
With `CN1C(N)=N[C@](C)(c2cc(/C=C(\F)c3ncc(C#N)cc3Cl)ccc2F)CS1(=O)=O` [Example 269, (R,Z)-6-(2-(3-(3-amino-2,5-dimethyl-1,1-dioxido-5,6-dihydro-2H-1,2,4-thiadiazin-5-yl)-4-fluorophenyl)-1-fluorovinyl)-5-chloronicotinonitrile], the IC50 on human recombinant BACE2 is 3 nM; on BACE1 [1], 2 nM; against BACE1 [2], 4 nM; at Cathepsin D (CatD), 119000 nM.
In the same order, the values of `CN1C(N)=N[C@](C)(c2cc(/C=C(\F)c3ccc(F)cn3)cc(F)c2F)CS1(=O)=O` [Example 270, (R,Z)-3-amino-5-(2,3-difluoro-5-(2-fluoro-2-(5-fluoropyridin-2-yl)vinyl)phenyl)-2,5-dimethyl-5,6-dihydro-2H-1,2,4-thiadiazine 1,1-dioxide] are 28 nM, 75 nM, 138 nM and 265000 nM.
In the same order, the values of `CN1C(N)=N[C@](C)(c2cc(/C=C(\F)c3ccc(C(F)(F)F)cn3)cc(F)c2F)CS1(=O)=O` [Example 273, (R,Z)-3-amino-5-(2,3-difluoro-5-(2-fluoro-2-(5-(trifluoromethyl)pyridin-2-yl)vinyl)phenyl)-2,5-dimethyl-5,6-dihydro-2H-1,2,4-thiadiazine 1,1-dioxide] are 46 nM, 7 nM, 13 nM and 76200 nM.
The corresponding values for `Cc1cc(C#N)cnc1/C(F)=C/c1ccc(F)c([C@]2(C)CS(=O)(=O)C(C)(C)C(N)=N2)c1` [Example 274, (R,Z)-6-(2-(3-(5-amino-3,6,6-trimethyl-1,1-dioxido-3,6-dihydro-2H-1,4-thiazin-3-yl)-4-fluorophenyl)-1-fluorovinyl)-5-methylnicotinonitrile] are 28 nM, 6 nM, 51 nM and 122000 nM.

Usually IC50 stands for the concentration that gives 50% inhibition.
